Values joined by “and” are separate entries in the source; they are usually repeats but may differ in a detail not shown here. Equal values may be shown once. Toxic doses and inconclusive results are not listed.
System: L1210 leukemia ip in BDF1 mice, survival T/C
Experiment: NCI In Vivo Anticancer Drug Screen. Data for tumor model L1210 Leukemia (intraperitoneal) in B6D2F1 (BDF1) mice
Settings: endpoint: mean survival time, higher = longer survival
Procedure, shortened: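 Survival endpoint. Drug-treated group vs vehicle group, expressed as T divided by C. Tumor passaged by transplantation.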

[1] = dose: 100.0 mg/kg/injection, schedule: Q04DX003 (ip), vehicle: Klucel (hydroxypropylcellulose) (HPC)

Question: Which T/C (dose: 6.25 mg/kg/injection, schedule: Q01DX009 (ip), vehicle: saline) does the source give for `O=C(Cn1ccc(=O)[nH]c1=O)Nc1nccs1` here?
Answer: 102 % of control

Question: What about the T/C (dose: 12.5 mg/kg/injection, schedule: Q01DX009 (ip), vehicle: saline) of the same compound?
Answer: 104 % of control

Question: What about the T/C (dose: 12.5 mg/kg/injection, schedule: Q04DX003 (ip), vehicle: saline) of the same compound?
Answer: 122 % of control

Question: And the T/C (dose: 25.0 mg/kg/injection, schedule: Q01DX009 (ip), vehicle: saline)?
Answer: 103 % of control

Question: And the T/C (dose: 25.0 mg/kg/injection, schedule: Q04DX003 (ip), vehicle: saline)?
Answer: 95 % of control

Question: Which T/C [1] does the source give for `Cc1ccc([N+](=O)[O-])cc1NC(=O)SCCSC(=O)Nc1cc([N+](=O)[O-])ccc1C` here?
Answer: 90 % of control

Question: What about the T/C (dose: 200.0 mg/kg/injection, schedule: Q04DX003 (ip), vehicle: Klucel (hydroxypropylcellulose) (HPC)) of the same compound?
Answer: 92 % of control

Question: What about the T/C (dose: 400.0 mg/kg/injection, schedule: Q04DX003 (ip), vehicle: Klucel (hydroxypropylcellulose) (HPC)) of the same compound?
Answer: 92 % of control

Question: Which T/C (dose: 100.0 mg/kg/injection, schedule: Q01DX009 (ip), vehicle: saline with Tween-80) does the source give for `COc1ccc(C(=O)CC(C#N)c2ccc3c(c2)OCO3)cc1OC` (stereo not given) here?
Answer: 94 % of control

Question: And the T/C (dose: 200.0 mg/kg/injection, schedule: Q01DX009 (ip), vehicle: saline with Tween-80)?
Answer: 94 % of control

Question: And the T/C (dose: 400.0 mg/kg/injection, schedule: Q01DX009 (ip), vehicle: saline with Tween-80)?
Answer: 96 % of control

Question: How did the T/C (dose: 12.5 mg/kg/injection, schedule: Q04DX002 (ip), vehicle: Klucel (hydroxypropylcellulose) (HPC)) turn out when `Cc1ccc(C(=O)C=Nc2ccc(S(N)(=O)=O)cc2)cc1` was run?
Answer: 94 % of control

Question: What about the T/C (dose: 25.0 mg/kg/injection, schedule: Q04DX002 (ip), vehicle: Klucel (hydroxypropylcellulose) (HPC)) of the same compound?
Answer: 115 % of control

Question: What about the T/C (dose: 50.0 mg/kg/injection, schedule: Q04DX002 (ip), vehicle: Klucel (hydroxypropylcellulose) (HPC)) of the same compound?
Answer: 97 % of control

Question: With `COc1ccc(Cl)cc1NC(=O)c1ccc(C(=O)Nc2cc(Cl)ccc2OC)cc1` as the compound, how does the T/C (dose: 50.0 mg/kg/injection, schedule: Q01DX009 (ip), vehicle: Klucel (hydroxypropylcellulose) (HPC)) read?
Answer: 109 % of control

Question: And the T/C (dose: 100.0 mg/kg/injection, schedule: Q01DX009 (ip), vehicle: Klucel (hydroxypropylcellulose) (HPC))?
Answer: 90 % of control

Question: What about the T/C (dose: 200.0 mg/kg/injection, schedule: Q01DX009 (ip), vehicle: Klucel (hydroxypropylcellulose) (HPC)) of the same compound?
Answer: 86 % of control and 92 % of control

Question: What about the T/C (dose: 400.0 mg/kg/injection, schedule: Q01DX009 (ip), vehicle: Klucel (hydroxypropylcellulose) (HPC)) of the same compound?
Answer: 94 % of control

Question: With `c1ccc(Cn2ccnc2)cc1` as the compound, how does the T/C (dose: 3.12 mg/kg/injection, schedule: Q01DX009 (ip), vehicle: water) read?
Answer: 106 % of control

Question: And the T/C (dose: 6.25 mg/kg/injection, schedule: Q01DX009 (ip), vehicle: water)?
Answer: 117 % of control

Question: And the T/C (dose: 12.5 mg/kg/injection, schedule: Q01DX009 (ip), vehicle: water)?
Answer: 107 % of control

Question: What about the T/C (dose: 25.0 mg/kg/injection, schedule: Q01DX009 (ip), vehicle: water) of the same compound?
Answer: 104 % of control and 108 % of control

Question: And the T/C (dose: 50.0 mg/kg/injection, schedule: Q01DX009 (ip), vehicle: water)?
Answer: 96 % of control

Question: What about the T/C (dose: 75.0 mg/kg/injection, schedule: Q01DX001 (ip), vehicle: saline) of the same compound?
Answer: 103 % of control

Question: For `O=NN(CCBr)C(=O)NCCBr`, which T/C (dose: 3.0 mg/kg/injection, schedule: Q01DX Z (ip), vehicle: carboxymethylcellulose (CMC)) is on record?
Answer: 110 % of control

Question: What about the T/C (dose: 6.0 mg/kg/injection, schedule: Q01DX Z (ip), vehicle: carboxymethylcellulose (CMC)) of the same compound?
Answer: 107 % of control

Question: What about the T/C (dose: 6.25 mg/kg/injection, schedule: Q01DX001 (ip), vehicle: carboxymethylcellulose (CMC)) of the same compound?
Answer: 104 % of control

Question: What about the T/C (dose: 12.5 mg/kg/injection, schedule: Q01DX001 (ip), vehicle: carboxymethylcellulose (CMC)) of the same compound?
Answer: 103 % of control

Question: What about the T/C (dose: 25.0 mg/kg/injection, schedule: Q01DX001 (ip), vehicle: carboxymethylcellulose (CMC)) of the same compound?
Answer: 109 % of control

Question: And the T/C (dose: 50.0 mg/kg/injection, schedule: Q01DX001 (ip), vehicle: carboxymethylcellulose (CMC))?
Answer: 114 % of control

Question: And the T/C (dose: 50.0 mg/kg/injection, schedule: Q01DX Z (ip), vehicle: carboxymethylcellulose (CMC))?
Answer: 172 % of control

Question: What about the T/C (dose: 100.0 mg/kg/injection, schedule: Q01DX Z (ip), vehicle: carboxymethylcellulose (CMC)) of the same compound?
Answer: 156 % of control

Question: And the T/C (dose: 200.0 mg/kg/injection, schedule: Q01DX001 (ip), vehicle: carboxymethylcellulose (CMC))?
Answer: 178 % of control

Question: And the T/C (dose: 300.0 mg/kg/injection, schedule: Q01DX001 (ip), vehicle: carboxymethylcellulose (CMC))?
Answer: 200 % of control

Question: What does the source list for `CC(=O)Oc1c(OC(C)=O)c(C=O)c2c(OC(C)=O)c(-c3c(C)cc4c(C(C)C)c(OC(C)=O)c(OC(C)=O)c(C=O)c4c3OC(C)=O)c(C)cc2c1C(C)C`?
Answer: T/C (dose: 6.25 mg/kg/injection, schedule: Q01DX009 (ip), vehicle: Klucel (hydroxypropylcellulose) (HPC)): 102 % of control; T/C (dose: 12.5 mg/kg/injection, schedule: Q01DX009 (ip), vehicle: Klucel (hydroxypropylcellulose) (HPC)): 97 % of control; T/C (dose: 25.0 mg/kg/injection, schedule: Q01DX009 (ip), vehicle: Klucel (hydroxypropylcellulose) (HPC)): 100 % of control and 105 % of control; T/C (dose: 25.0 mg/kg/injection, schedule: Q04DX003 (ip), vehicle: Klucel (hydroxypropylcellulose) (HPC)): 93 % of control; T/C (dose: 50.0 mg/kg/injection, schedule: Q04DX003 (ip), vehicle: Klucel (hydroxypropylcellulose) (HPC)): 90 % of control; T/C [1]: 95 % of control and 104 % of control

Source: PubChem BioAssay AID248 (DTP/NCI, 2004)
